Assay results as given in patent US20020137929A1, “1 - (3-heterocyclylphenyl) isothiourea, -isourea, -guanidine and -amidine herbicidal agents” (Intellectual Property Department, BASF Aktiengesellschaft, priority 1998, published 2002).

Tests used:
ABUTH (Velvetleaf) = experiment: Postemergence herbicidal evaluation; assay type: in vivo, Abutilon theophrasti; settings: postemergence
Summary of the method: (§1)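 Visual 0-9 injury score (stand, vigor, malformation, size, chlorosis, appearance vs untreated) taken four to five weeks post-spray, averaged across repeat tests. Test plants about two weeks old; foliar spray of acetone/water (1:1) with 0.5% surfactant delivering ~0.0156-0.500 kg active/ha.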

GALAP (Galium) [1] = experiment: Postemergence herbicidal evaluation; assay type: in vivo, Galium aparine; settings: postemergence
Summary of the method: as §1

[2] = tested on: IPOSS (Morningglory Spp.); experiment: Postemergence herbicidal evaluation; assay type: in vivo, Ipomoea Spp.
Experimental: In the tests, seedling plants are grown in jiffy flats for about two weeks. The test compounds are dispersed in 50/50 acetone/water mixtures containing 0.5% TWEEN®20, a polyoxyethylene sorbitan monolaurate surfactant of Atlas Chemical Industries, in sufficient quantities to provide the equivalent of about 0.0156 kg to 0.500 kg per hectare of active compound when applied to the plants through a spray nozzle operating at 40 psi for a predetermined time. After spraying, the plants are placed on greenhouse benches and are cared for in accordance with conventional greenhouse procedures. From four to five weeks after treatment, the seedling plants are examined and rated according to the rating system set forth below. Where more than one test is involved for a given compound, the data are averaged.
Plant species employed in these evaluations are reported by header abbreviation, common name and scientific name.
(§2) Results of herbicide evaluation are expressed on a rating scale (0-9). The scale is based upon a visual observation of plant stand, vigor, malformation, size, chlorosis and overall plant appearance as compared with a control.

GALAP (Galium) [3] = experiment: Preemergence herbicidal evaluation; assay type: in vivo, Galium aparine; settings: rated 4-5 weeks after treatment
Summary of the method: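 In this greenhouse assay, monocot and dicot seeds are planted in soil and treated prior to emergence with an aqueous acetone spray (about 0.0156-0.500 kg/ha). Plants are assessed visually against control on a 0-9 scale after 4-5 weeks.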

[4] = tested on: IPOSS (Morningglory Spp.); experiment: Preemergence herbicidal evaluation; assay type: in vivo, Ipomoea Spp.; settings: rated 4-5 weeks after treatment
Excerpt: as §2
The preemergence herbicidal activity of the test compounds of the present invention is exemplified by the following tests in which the seeds of a variety of monocotyledonous and dicotyledonous plants are separately mixed with potting soil and planted on top of approximately one inch of soil in separate pint cups. After planting, the cups are sprayed with the selected aqueous acetone solution containing test compound in sufficient quantity to provide the equivalent of about 0.0156 to 0.500 kg per hectare of test compound per cup. The treated cups are then placed on greenhouse benches, watered and cared for in accordance with conventional greenhouse procedures. From four to five weeks after treatment, the tests are terminated and each cup is examined and rated according to the rating system provided in Example 37.
The compounds evaluated are reported by compound number given in Example 37.

MOOVA (Monochoria) = experiment: Postemergence weed control under flooded paddy conditions; assay type: in vivo, Monochoria vaginalis; settings: postemergence weeds, 3-4 weeks after treatment
Summary of the method: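 With weeds 3 to 5 cm tall and rice at the 1.5 to 2.5 leaf stage, containers were flooded and water held 1.5 to 3 cm above soil. Compounds in 50/50 v/v aqueous/acetone went into the flood water at about 0.0313 to 0.500 kg/ha a.i. Effects were visually rated 0–9 against controls after three to four weeks in the greenhouse.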

ORYSAT (Rice, Tebonnet) [5] = experiment: Rice tolerance to post-transplant applications, flooded paddy conditions (Table III); assay type: in vivo, Oryza sativa, (L.) Tebonnet; settings: post-transplant rice, flooded paddy, rated 3-4 weeks after treatment
Summary of the method: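 Two ten-day-old Tebonnet seedlings transplanted into flooded silt loam (water 1.5 to 3 cm above soil); three days later the water surface was treated with compound in aqueous/acetone 50/50 at about 0.0313 to 0.500 kg/ha. Visual 0-9 injury rating versus control after three to four weeks in greenhouse.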

ORYSAT (Rice, Tebonnet) [6] = experiment: Rice tolerance to post-transplant applications, flooded paddy conditions (Table IV); assay type: in vivo, Oryza sativa, (L.) Tebonnet; settings: flooded paddy, post-transplant rice, 3-4 weeks after treatment
Summary of the method: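 Post-transplant paddy test in greenhouse: a.i. about 0.0313 to 0.500 kg/ha applied into the flood water. Plants are rated 0-9 for overall appearance relative to control three to four weeks on.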

| SMILES | ABUTH herbicidal rating (ABUTH (Velvetleaf); rate 0.0157 kg/ha) | ABUTH herbicidal rating (ABUTH (Velvetleaf); rate 0.0313 kg/ha) | ABUTH herbicidal rating (ABUTH (Velvetleaf); rate 0.0625 kg/ha) | ABUTH herbicidal rating (ABUTH (Velvetleaf); rate 0.1250 kg/ha) | ABUTH herbicidal rating (ABUTH (Velvetleaf); rate 0.2500 kg/ha) | ABUTH herbicidal rating (ABUTH (Velvetleaf); rate 0.5000 kg/ha) | GALAP herbicidal rating (GALAP (Galium) [1]; rate 0.0157 kg/ha) | GALAP herbicidal rating (GALAP (Galium) [1]; rate 0.0313 kg/ha) | GALAP herbicidal rating (GALAP (Galium) [1]; rate 0.0625 kg/ha) | GALAP herbicidal rating (GALAP (Galium) [1]; rate 0.1250 kg/ha) | GALAP herbicidal rating (GALAP (Galium) [1]; rate 0.2500 kg/ha) | GALAP herbicidal rating (GALAP (Galium) [1]; rate 0.5000 kg/ha) | IPOSS herbicidal rating ([2]; rate 0.0313 kg/ha) | IPOSS herbicidal rating ([2]; rate 0.0625 kg/ha) | IPOSS herbicidal rating ([2]; rate 0.1250 kg/ha) | IPOSS herbicidal rating ([2]; rate 0.2500 kg/ha) | IPOSS herbicidal rating ([2]; rate 0.5000 kg/ha) | GALAP preemergence herbicidal rating (GALAP (Galium) [3]; rate 0.0313 kg/ha) | IPOSS preemergence herbicidal rating ([4]; rate 0.0313 kg/ha) | IPOSS preemergence herbicidal rating ([4]; rate 0.0625 kg/ha) | other results |
| --- | --- | --- | --- | --- | --- | --- | --- | --- | --- | --- | --- | --- | --- | --- | --- | --- | --- | --- | --- | --- | --- |
| CN1C(=O)CSC1=Nc1cc(N2C(=O)C3=C(CCCC3)C2=O)c(F)cc1Cl [Compound 1, N-{4-chloro-2-fluoro-5-[(3-methyl-4-oxo-2-thiazolidinylidene)amino]phenyl}-1-cyclohexene-1,2-dicarboximide] | 5.0 | 8.0 | 8.0 | 9.0 | 9.0 | 9.0 | 4.0 | 6.0 | 6.0 | 8.0 | 9.0 | 9.0 | 9.0 | 9.0 | 9.0 | 9.0 | 9.0 | 9.0 | 1.0 | 6.0 | IPOSS herbicidal rating ([2]; rate 0.0157 kg/ha): 6.0; GALAP preemergence herbicidal rating (GALAP (Galium) [3]; rate 0.0625 kg/ha): 7.0; GALAP preemergence herbicidal rating (GALAP (Galium) [3]; rate 0.1250 kg/ha): 9.0; GALAP preemergence herbicidal rating (GALAP (Galium) [3]; rate 0.2500 kg/ha): 9.0; GALAP preemergence herbicidal rating (GALAP (Galium) [3]; rate 0.5000 kg/ha): 8.0; IPOSS preemergence herbicidal rating ([4]; rate 0.1250 kg/ha): 7.0; IPOSS preemergence herbicidal rating ([4]; rate 0.2500 kg/ha): 6.0; IPOSS preemergence herbicidal rating ([4]; rate 0.5000 kg/ha): 8.0; Herbicidal rating MOOVA (MOOVA (Monochoria); rate 0.0313 kg/ha): 4.0; Herbicidal rating MOOVA (MOOVA (Monochoria); rate 0.0625 kg/ha): 4.5; Herbicidal rating MOOVA (MOOVA (Monochoria); rate 0.1250 kg/ha): 4.5; Herbicidal rating MOOVA (MOOVA (Monochoria); rate 0.2500 kg/ha): 5.0; Herbicidal rating MOOVA (MOOVA (Monochoria); rate 0.5000 kg/ha): 5.5 |
| O=C1CSC(=Nc2cc(N3C(=O)C4=C(CCCC4)C3=O)c(F)cc2Cl)N1c1ccccc1 [Compound 3, N-{4-chloro-2-fluoro-5-[(4-oxo-3-phenyl-2-thiazolidinylidene)amino]phenyl}-1-cyclohexene-1,2-dicarboximide] | 6.0 | 6.0 | 6.0 | 9.0 | 6.0 | 9.0 | 9.0 | 2.0 | 4.0 | 4.0 | 6.0 | 9.0 | 2.0 | 4.0 | 9.0 | 8.0 | 9.0 | 4.0 | 0.0 | 0.0 | IPOSS preemergence herbicidal rating ([4]; rate 0.1250 kg/ha): 0.0; IPOSS preemergence herbicidal rating ([4]; rate 0.2500 kg/ha): 2.0; IPOSS preemergence herbicidal rating ([4]; rate 0.5000 kg/ha): 4.0; Herbicidal rating ORYSAT (rice tolerance) (ORYSAT (Rice, Tebonnet) [5]; 0.0625 kg/ha): 0.0; Herbicidal rating ORYSAT (rice tolerance) (ORYSAT (Rice, Tebonnet) [5]; 0.1250 kg/ha): 2.0; Herbicidal rating ORYSAT (rice tolerance) (ORYSAT (Rice, Tebonnet) [5]; 0.2500 kg/ha): 2.0; Herbicidal rating ORYSAT (rice tolerance) (ORYSAT (Rice, Tebonnet) [5]; 0.5000 kg/ha): 3.0; Herbicidal rating MOOVA (MOOVA (Monochoria); rate 0.0625 kg/ha): 1.0; Herbicidal rating MOOVA (MOOVA (Monochoria); rate 0.1250 kg/ha): 4.5; Herbicidal rating MOOVA (MOOVA (Monochoria); rate 0.2500 kg/ha): 4.5; Herbicidal rating MOOVA (MOOVA (Monochoria); rate 0.5000 kg/ha): 5.5; Herbicidal rating ORYSAT (rice tolerance) (ORYSAT (Rice, Tebonnet) [6]; rate 0.0625 kg/ha): 0.0; Herbicidal rating ORYSAT (rice tolerance) (ORYSAT (Rice, Tebonnet) [6]; rate 0.1250 kg/ha): 1.0; Herbicidal rating ORYSAT (rice tolerance) (ORYSAT (Rice, Tebonnet) [6]; rate 0.2500 kg/ha): 1.0; Herbicidal rating ORYSAT (rice tolerance) (ORYSAT (Rice, Tebonnet) [6]; rate 0.5000 kg/ha): 2.0 |
